“And” between values parts separate entries of the source, which are not always exact repeats. Equal entries are not always repeated. Each block holds one compound with its values, some of them ahead of it.
Assays:
[1] = molecular target: T1, Bovine (aorta) LOX (Bos taurus, UniProt P33072); experiment: Amplex Red oxidation assay, LOX inhibition; format: biochemical; settings: 30 min pre-incubation
T1 construct: Bovine (aorta) LOX used for analog screening due to ready availability; from tissue; host or cells: bovine aorta
T1 sequence (P33072 170-418): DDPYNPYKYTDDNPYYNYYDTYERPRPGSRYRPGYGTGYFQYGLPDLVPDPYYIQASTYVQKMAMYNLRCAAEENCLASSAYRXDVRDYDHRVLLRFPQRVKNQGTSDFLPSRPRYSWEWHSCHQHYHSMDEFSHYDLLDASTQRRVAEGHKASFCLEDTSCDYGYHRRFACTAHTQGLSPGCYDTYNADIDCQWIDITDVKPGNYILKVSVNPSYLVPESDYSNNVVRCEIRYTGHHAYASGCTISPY
Method: (§1) The measurement of the enzymatic activity of all lysyl oxidase family members was based on the detection of hydrogen peroxide with an Amplex-Red oxidation assay, as previously described; miniaturized in 384 well formats, with the appropriate combination of substrate and assay buffer for each individual enzyme. After a 30 min pre-incubation of the enzyme at 37 °C with the test compound (or with different incubation times for the time-dependency assay), one volume of reaction mixture containing 120 μM Amplex Red (AR) (Life Technologies), 1.5 U/mL horseradish peroxidase (HRP) (Sigma-Aldrich) and the specific substrate was added to each sample. The relative fluorescence units (RFU) were then measured every 2.5 min for 30 min at 37 °C, excitation 565 nm and emission 590, on a BMG Clariostar Microplate Reader. All the substrates were used at concentrations corresponding to their Km towards the corresponding enzyme, or with a range of different concentrations for the substrate competition experiments.
(§2) Lysyl oxidases assay buffer contained 1.2 M urea, 50 mM sodium borate buffer, pH 8.2 and 100 µM β-aminoproprionitrile (BAPN, Sigma-Aldrich) was used for low control.

[2] = molecular target: T2, Human recombinant LOXL2 (Homo sapiens, UniProt Q9Y4K0); experiment: Amplex Red oxidation assay, LOXL2 inhibition; format: biochemical; settings: 30 min pre-incubation; read-out: LOXL2 IC50
T2 construct: purchased R&D Systems
T2 sequence (Q9Y4K0 26-774): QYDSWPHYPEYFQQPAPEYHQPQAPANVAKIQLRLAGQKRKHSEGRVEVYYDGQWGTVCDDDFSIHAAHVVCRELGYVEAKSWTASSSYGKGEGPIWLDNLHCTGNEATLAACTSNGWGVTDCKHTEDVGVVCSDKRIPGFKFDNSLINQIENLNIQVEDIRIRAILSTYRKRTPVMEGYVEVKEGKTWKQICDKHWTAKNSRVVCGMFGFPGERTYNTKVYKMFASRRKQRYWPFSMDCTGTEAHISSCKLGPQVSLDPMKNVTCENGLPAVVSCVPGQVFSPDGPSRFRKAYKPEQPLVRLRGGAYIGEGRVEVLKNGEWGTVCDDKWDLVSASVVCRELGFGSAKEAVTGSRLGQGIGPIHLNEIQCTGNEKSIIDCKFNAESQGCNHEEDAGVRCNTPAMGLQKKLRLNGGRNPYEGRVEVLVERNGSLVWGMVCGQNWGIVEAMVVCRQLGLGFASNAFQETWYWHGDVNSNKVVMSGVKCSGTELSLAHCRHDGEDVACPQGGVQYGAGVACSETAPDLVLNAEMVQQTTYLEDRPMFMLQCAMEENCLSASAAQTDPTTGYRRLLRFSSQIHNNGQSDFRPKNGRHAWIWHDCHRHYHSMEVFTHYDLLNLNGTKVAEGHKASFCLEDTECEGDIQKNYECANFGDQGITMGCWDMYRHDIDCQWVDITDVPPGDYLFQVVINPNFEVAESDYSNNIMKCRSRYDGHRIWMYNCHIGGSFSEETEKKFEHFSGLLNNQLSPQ
Method: (§3) For compound oxidation assays, the amount of hydrogen peroxide generated at a single concentration (30 µM) of compound relative to DMSO was measured.
as §1, §2
Recombinant human LOXL1 was expressed and purified from cDNA (GeneArt) and 10 mM putrescine was used as substrate. Recombinant human and mouse LOXL2 (R&D Systems) were challenged with 5 mM putrescine (Sigma-Aldrich) as the substrate. Rat and dog recombinant LOXL2 were amplified and purified in house from HEK-293 clones kindly provided by Dr. Fernando Rodríguez Pascual, Madrid University, and used in the same conditions as for the human form. 2 mM putrescine was used as the substrate for recombinant human LOXL3 (R&D Systems) and LOXL4 (Dr. Fernando Rodríguez Pascual, university of Madrid, Spain) assays.

[3] = molecular target: T3, Human Recombinant SSAO (Homo sapiens, UniProt Q16853); experiment: Compound oxidation assay (substrate propensity) by SSAO; format: biochemical; settings: single concentration 30 µM
T3 sequence (Q16853 1-763): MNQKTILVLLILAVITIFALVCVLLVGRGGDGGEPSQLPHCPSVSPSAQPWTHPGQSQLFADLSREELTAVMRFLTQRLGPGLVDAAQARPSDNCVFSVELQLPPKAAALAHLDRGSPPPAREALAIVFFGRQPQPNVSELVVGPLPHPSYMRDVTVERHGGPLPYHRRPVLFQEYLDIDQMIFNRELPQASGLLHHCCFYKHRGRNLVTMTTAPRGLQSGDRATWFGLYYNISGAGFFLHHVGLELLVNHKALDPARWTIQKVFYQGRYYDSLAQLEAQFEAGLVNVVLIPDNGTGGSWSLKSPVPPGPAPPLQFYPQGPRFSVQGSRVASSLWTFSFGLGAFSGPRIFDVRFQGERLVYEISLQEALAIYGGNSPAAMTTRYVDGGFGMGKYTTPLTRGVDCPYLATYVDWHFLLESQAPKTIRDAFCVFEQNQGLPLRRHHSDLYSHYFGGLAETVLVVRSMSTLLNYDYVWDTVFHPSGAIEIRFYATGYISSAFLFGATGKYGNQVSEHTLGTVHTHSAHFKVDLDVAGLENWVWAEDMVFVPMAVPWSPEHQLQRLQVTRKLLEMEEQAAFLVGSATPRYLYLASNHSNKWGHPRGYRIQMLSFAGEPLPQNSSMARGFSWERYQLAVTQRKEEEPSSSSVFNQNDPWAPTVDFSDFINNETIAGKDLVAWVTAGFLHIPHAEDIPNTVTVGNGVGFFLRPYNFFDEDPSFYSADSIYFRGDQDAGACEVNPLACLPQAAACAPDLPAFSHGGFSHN
Method: as §3
Data are expressed as mean ± SEM. Subsequent statistical analysis was performed with unpaired two-sided Student’s t tests. *p < 0.05, **p < 0.01, ***p < 0.001and ****p < 0.0001. Source data are provided as a Source Data file.
This assay determines the substrate propensity of a compound relative to background (dimethyl sulfoxide only). Compound oxidation by rhSSAO was measured by fluorometric assay. Briefly, rhSSAO was incubated for 2 h at 37 °C in HEPES buffer before the addition of an equal volume of Amplex Red ([…]), horseradish peroxidase (4 U/ml), and test compound in the same buffer. The kinetics of the formation of resorufin was measured immediately using Optima reader (BMG Labtech GmbH, Ortenburg, Germany), at 37 °C.

[4] = system: chicken lysyl oxidase; set-up: method as in earlier work; settings: cited from earlier work
[5] = Franz Cell skin permeability assay; format: in vitro ADME, human; settings: average of 3 samples

Structure (SMILES): NC/C=C(/F)COc1ccccc1 [compound 3]
IC50 [1]: 13.5 µM | IC50 [2]: 2.9 µM | Oxidation by SSAO (hydrogen peroxide generated relative to DMSO) [3]: 12.0

Structure (SMILES): NC/C=C(\F)CSc1ccccc1 [compound 7]
IC50 [1]: 8.5 µM | IC50 [2]: 1.1 µM | Oxidation by SSAO (hydrogen peroxide generated relative to DMSO) [3]: 68

Structure (SMILES): NC/C(=C/F)CCc1ccc(F)cc1 [Mofegiline, mofegiline, reference compound]
inhibition of chicken lysyl oxidase activity [4]: modest inhibitor | IC50 [1]: 56 µM | IC50 [2]: > 10 µM | Oxidation by SSAO (hydrogen peroxide generated relative to DMSO) [3]: 1.0

Structure (SMILES): NC/C=C(\F)C(F)(F)S(=O)(=O)c1ccccc1 [Samples 6302]
Avg. 6302 concentration ([5]; 0hr): 0 µM | Avg.6302 concentration ([5]; 0hr): 0.000 ng/mL | Avg. 6302 concentration ([5]; 2hr): 0.017 µM | Avg.6302 concentration ([5]; 2hr): 4.559 ng/mL | Avg. 6302 concentration ([5]; 4hr): 0.042 µM | Avg.6302 concentration ([5]; 4hr): 11.109 ng/mL | Avg. 6302 concentration ([5]; 6hr): 0.166 µM | Avg.6302 concentration ([5]; 6hr): 44.135 ng/mL | Avg. 6302 concentration ([5]; 20hr): 1.742 µM | Avg.6302 concentration ([5]; 20hr): 462.127 ng/mL

Structure (SMILES): NC/C=C(\F)CNc1ccccc1 [compound 6]
IC50 [1]: 13.6 µM | IC50 [2]: 3.4 µM | Oxidation by SSAO (hydrogen peroxide generated relative to DMSO) [3]: 5.5

Structure (SMILES): NC/C=C(\F)CN1CCc2ccccc21 [compound 5]
IC50 [1]: 10.8 µM | IC50 [2]: 0.9 µM | Oxidation by SSAO (hydrogen peroxide generated relative to DMSO) [3]: 2.6

Results, then the compound that gave them:

IC50 [1]: > 30 µM | IC50 [2]: 9.5 µM | Oxidation by SSAO (hydrogen peroxide generated relative to DMSO) [3]: 1.1
Structure (SMILES): NCC(=CF)COc1ccccc1 [compound 1]

IC50 [1]: 8.4 µM and 8 µM | IC50 [2]: 1.1 µM
Structure (SMILES): NC/C=C(\F)COc1ccccc1 [compound 4]

IC50 [1]: > 30 µM | IC50 [2]: 8.7 µM | Oxidation by SSAO (hydrogen peroxide generated relative to DMSO) [3]: 1.1
Structure (SMILES): NC/C(=C\F)COc1ccccc1 [compound 2]

From publication PMC9500072, “Topical application of an irreversible small molecule inhibitor of lysyl oxidases ameliorates skin scarring and fibrosis” (Nature Communications, 2022)
